Data from patent publication US6488953B2, “Oral transmucosal delivery” (Controlled Therapeutics (Scotland) Ltd., priority 1998, dated 2002).
Values joined by “and” are separate entries in the source; they are usually repeats but may differ in a detail not shown here. Equal values may be shown once.

Tests used:
[1] = Lysozyme in-vitro release from dried slices (BCA assay); assay type: physicochemical; conditions: five dried slices in 30 ml demineralised water, after 24 hours
Protocol: To determine the release profile of lysozyme from dried slices, five slices (0.86 g) were placed in a bottle and 30 ml of demineralised water added. Samples were taken regularly and analysed for protein using the BCA assay. A total of 22.9 mg (88.4%) was released after 24 hours.

[2] = Microbiological testing in-vitro, each drug alone; assay type: cell-based; conditions: examined alone
Source text: (§1) A microbiological assay was developed to examine the efficacy of the colistin sulphate and tobramycin when loaded and released from the polymer at the same time. organisms were selected which were sensitive to only one of the antibiotics.

[3] = In-vivo release of colistin sulphate and tobramycin from buccal inserts; conditions: four subjects
Source text: The release of the two drugs was examined in four healthy subjects. The insert was placed against the buccal mucosa in the upper gingival tissue. Eating and smoking was not permitted during the study, drinking of tea, coffee or soft drinks was allowed.

[4] = tested on: A.Xylosoxidans; test: MIC microbiological assay; assay type: cell-based; conditions: single drug
Source text: as §1

[5] = tested on: S.Aureus; test: MIC microbiological assay; assay type: cell-based; conditions: single drug
Source text: as §1

[6] = Oral dissolution model, chemical (HPLC) assay of tobramycin; assay type: physicochemical; conditions: for Chemical Dissolution (concentration in eluate): cells 1-3
Protocol: (§2) Six cells were sterilised by autoclaving and then connected to a Duran bottle of sterile water. The flow of water into the cell was controlled by a peristaltic pump (Watson Marlow, Falmouth, UK) to a rate of 0.5 ml/minute. Two different dosage forms (5.8 and 10.5 mg tobramycin) as 9.2 mm discs of thickness 1.7 mm and 130 mg weight were tested by placing directly under the inflow tube and media allowed to flow slowly across them. The dissolution cells were kept at an angle of about 10 degrees to the horizontal to allow flow away from the test units and towards the outflow tube where it was either run to waste or sampled for test. Samples of 2 ml were collected at various timepoints up to 3 hours and divided for chemical (HPLC) and microbiological assay. Tobramycin chemical analysis was carried out using a Dionex HPLC method. The microbiological assay was carried out by double diluting the eluted fractions with broth. These were then spiked with a known number of micro-organisms and incubated. The last tube without growth was then noted. By carrying this out in parallel against a series of prepared standards the inhibitory concentration could be derived.

[7] = tested on: micro-organisms; test: Oral dissolution model, microbiological assay of eluted fractions; assay type: cell-based; conditions: cells 1-3
Protocol: as §2

[8] = Apomorphine plasma levels after buccal inserts; assay type: in vivo, human; conditions: one subject, insert containing 20 mg
Protocol: 1.1 mm thick inserts containing 5, 10 and 20 mg of apomorphine were tested for drug release in six subjects. The levels of drug observed in plasma was 0.2 to 0.8 ng/ml for five of the subjects and reached 5 ng/ml for one subject after administering an insert containing 20 mg of apomorphine.

[9] = Apomorphine in-vivo release, 0.6 mm inserts; set-up: species or system human; conditions: individual subjects 1-8
Protocol: Inserts were prepared of thickness 0.6 mm and the release profile in-vitro compared with those of the 1.1 mm thick inserts.
A study was carried out in eight subjects. These included two subjects from the previous study and six new subjects.

Lysozyme
total released [1]: 22.9 mg | total released (%) [1]: 88.4%

Colistin Sulphate
microbiological activity [2]: microbiologically active | Mean Amount of Drug Released (%) ([3]; insert thickness 0.4 mm, 1 Hour): 48.8% | Mean Amount of Drug Released (%) ([3]; insert thickness 0.4 mm, 3 Hours): 98.6% | Mean Amount of Drug Released (%) ([3]; insert thickness 0.6 mm, 1 Hour): 32.4% | Mean Amount of Drug Released (%) ([3]; insert thickness 0.6 mm, 3 Hours): 92.8% | Mean Amount of Drug Released (%) ([3]; insert thickness 0.8 mm, 1 Hour): 26.7% | Mean Amount of Drug Released (%) ([3]; insert thickness 0.8 mm, 3 Hours): 83.4% | Mean Amount of Drug Released (%) ([3]; insert thickness 1.1 mm, 3 Hours): 57.9% | MIC [4]: 8 μ μgml^−1 | MIC [5]: >32 μ μgml^−1

NC[C@H]1O[C@H](O[C@H]2[C@H](O)[C@@H](O[C@H]3O[C@H](CO)[C@@H](O)[C@H](N)[C@H]3O)[C@H](N)C[C@@H]2N)[C@H](N)C[C@@H]1O [Tobramycin]
microbiological activity [2]: microbiologically active | Chemical Dissolution (concentration in eluate) ([6]; 5 mg Dose, 0.25 hrs): 35.5 µg/mL and 26.7 µg/mL and 33.4 µg/mL | Chemical Dissolution (concentration in eluate) ([6]; 5 mg Dose, 1 hrs): 23.7 µg/mL and 17.7 µg/mL and 24.0 µg/mL | Chemical Dissolution (concentration in eluate) ([6]; 5 mg Dose, 2 hrs): 14.0 µg/mL and 15.8 µg/mL and 18.6 µg/mL | Chemical Dissolution (concentration in eluate) ([6]; 5 mg Dose, 3 hrs): 14.0 µg/mL and 12.0 µg/mL and 15.4 µg/mL | Chemical Dissolution (concentration in eluate) ([6]; 10 mg Dose, 0.25 hrs): 105.6 µg/mL and 85.3 µg/mL and 64.4 µg/mL | Chemical Dissolution (concentration in eluate) ([6]; 10 mg Dose, 1 hrs): 65.4 µg/mL and 44.6 µg/mL and 34.8 µg/mL | Chemical Dissolution (concentration in eluate) ([6]; 10 mg Dose, 2 hrs): 48.7 µg/mL and 36.9 µg/mL and 27.9 µg/mL | Chemical Dissolution (concentration in eluate) ([6]; 10 mg Dose, 3 hrs): 36.5 µg/mL and 32.0 µg/mL and 27.0 µg/mL | time for which controlled release is maintained ([6]; oral dissolution model, 0.5 ml/minute): 3 h | Microbiological Measure of Activity (derived concentration) ([7]; 5 mg Dose, 0.25 hrs): 32 mcg/ml and 36 mcg/ml | Microbiological Measure of Activity (derived concentration) ([7]; 5 mg Dose, 2 hrs): 16 mcg/ml and 18 mcg/ml | Microbiological Measure of Activity (derived concentration) ([7]; 5 mg Dose, 3 hrs): 16 mcg/ml and 18 mcg/ml | Microbiological Measure of Activity (derived concentration) ([7]; 10 mg Dose, 0.25 hrs): 64 mcg/ml | Microbiological Measure of Activity (derived concentration) ([7]; 10 mg Dose, 1 hrs): 64 mcg/ml and 32 mcg/ml | Microbiological Measure of Activity (derived concentration) ([7]; 10 mg Dose, 2 hrs): 32 mcg/ml and 16 mcg/ml | Microbiological Measure of Activity (derived concentration) ([7]; 10 mg Dose, 3 hrs): 32 mcg/ml and 16 mcg/ml | MIC [4]: >256 μ μgml^−1 | MIC [5]: 4 μ μgml^−1

CN1CCc2cccc3c2[C@H]1Cc1ccc(O)c(O)c1-3 [Apomorphine]
levels of drug observed in plasma [8]: 5 ng/mL | % RELEASE ([9]; 10 mg): 6.4% and 42.8% and 30.4% and 10.9% and 0.48% and 25.1% and 26.0% and 3.4% | % RELEASE ([9]; 18 mg): 2.64% and 15.2% and 26.3% and 21.5% and 4.1% and 7.5% and 49.2% and 19.4% | % RELEASE ([9]; 27 mg (am.)): 0.0% and 1.1% and 24.8% and 9.9% and 2.7% and 6.2% and 17.7% and 1.3% | % RELEASE ([9]; 27 mg (pm.)): 0.0% and 6.2% and 32.6% and 23.6% and 4.4% and 1.3% and 29.6% and 3.0%
